Measurements: ChEMBL document CHEMBL1649386, “Synthesis and in vitro cytotoxic evaluation of some thiazolylbenzimidazole derivatives” (Eur J Med Chem, 2011)

How the values were obtained:
[1] = test system: SMMC-7721; test: Cytotoxicity against human SMMC7721 cells after 72 hrs by MTT assay; conditions: SMMC-7721, 72 h
[2] = test system: A549 (Homo sapiens); test: Cytotoxicity against human A549 cells after 72 hrs by MTT assay; conditions: A549, 72 h

| Structure (SMILES) | IC50 [1] [µM] | IC50 [2] [µM] |
| --- | --- | --- |
| CCOC(=O)c1sc(-c2nc3ccccc3n2C)nc1C | 13.9 | > 20 |
| CCOC(=O)c1sc(-c2nc3ccccc3n2CC)nc1C | 9.85 | > 20 |
| CCOC(=O)c1sc(-c2nc3ccccc3n2C(C)C)nc1C | > 20 | > 20 |
| CCOC(=O)c1sc(-c2nc3ccccc3n2Cc2ccccc2)nc1C | 2.78 | > 20 |
| CCOC(=O)c1csc(-c2nc3ccccc3n2C)n1 | 16.5 | > 20 |
| CCOC(=O)c1csc(-c2nc3ccccc3n2Cc2ccccc2)n1 | 13 | > 20 |
| CCOC(=O)c1csc(-c2nc3ccccc3n2CC)n1 | > 20 | > 20 |
| CCOC(=O)Cc1csc(-c2nc3ccccc3n2C)n1 | > 20 | > 20 |
| Cc1nc(-c2nc3ccccc3n2Cc2ccccc2)sc1C(=O)O | 15.3 | > 20 |
| Cc1nc(-c2nc3ccccc3n2Cc2ccccc2)sc1C(=O)NC(C)C | 6.9 | 6.64 |
| CCN(CC)CCNC(=O)c1sc(-c2nc3ccccc3n2Cc2ccccc2)nc1C | 1.14 | 2.43 |
| Cc1nc(-c2nc3ccccc3n2Cc2ccccc2)sc1C(=O)Nc1ccccc1 | 3.7 | 3.96 |
| Cc1nc(-c2nc3ccccc3n2Cc2ccccc2)sc1C(=O)NC1CCCCC1 | 12.4 | 5.23 |
| Cc1nc(-c2nc3ccccc3n2Cc2ccccc2)sc1C(=O)N1CCCCC1 | > 20 | > 20 |
| Cc1nc(-c2nc3ccccc3n2Cc2ccccc2)sc1C(=O)N1CCOCC1 | > 20 | > 20 |
| Cc1nc(-c2nc3ccccc3n2Cc2ccccc2)sc1C(=O)N1CCN(C)CC1 | 20 | > 20 |
| CC(=O)O[C@H]1C(=O)[C@@]2(C)[C@H]([C@H](OC(=O)c3ccccc3)[C@]3(O)C[C@H](OC(=O)[C@H](O)[C@@H](NC(=O)c4ccccc4)c4ccccc4)C(C)=C1C3(C)C)[C@]1(OC(C)=O)CO[C@@H]1C[C@@H]2O [PACLITAXEL] | 1.42 |  |
